How the values were obtained:
[1] = Binary supramolecular self-assembly systems of polymer and target: guest concentration over incubation time (Comparative Example 2); format: physicochemical
Description: Experiments were conducted according to the steps in Comparative Example 1, and quantitative analysis was carried out using the analytical method for each target to investigate the regulation ability […] stacking.

[2] = Binary (carrier), ternary and quaternary supramolecular self-assembly systems of polymer, carrier building block and target: guest concentration over incubation time (Examples 1-56); format: physicochemical; details: 6 h
Procedure, shortened: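 Targets were incubated at 37 °C in pH 2.0–7.4 buffers with 0.5% polymer alone or with carrier building blocks, after 0.5 h sonication for ternary systems, and shaken at 200 rpm. Samples at 0.5–6 h were centrifuged and diluted ≥10-fold, and dissolved target was quantified by HPLC; surfactant was added if needed.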

[3] = Comparative Example 3: systems with 10% (W/V) natural building block; format: physicochemical; details: Comparative Example 3: 10% 313; 6 h
Description: An initial medium of each above target molecule was used to prepare a solution containing 10% Rubusoside A (313) or 10% (W/V) Mogroside V (319), the solution was sonicated at 37° C. to prepare a solution containing about 100 mg/mL building block 313 or 319 per 1 mL of the initial medium, the clear medium containing the natural building blocks was incubated in a 37° C. constant temperature air bath shaker for 1 hour, and subsequent operations and sample detection followed the steps of Comparative Examples 1 and 2. Considering that each natural building block had different UV absorption and was added at a high concentration, the more specific HPLC method was still used for quantitative determination on the solution concentration of each guest molecule, […].

[4] = Guest molecule concentration after incubation in initial medium without polymer (Comparative Example 1); format: physicochemical; details: 37° C., pH 2.0 hydrochloric acid
Procedure, shortened: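 Dissolved guest content measured by HPLC of centrifuged supernatants (37° C., 13000 rpm, 5 min) sampled at 0.5 h, 3 h and 6 h. Incubation was polymer-free at 37° C.±0.5° C. in buffers of pH 2.0-7.4; nominal loading was set by maximum clinical dose.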

[5] = 10% (W/V) Rubusoside A as building block; according to US2012/0121696A1; cited from earlier work

Concentration of the target in the solution measured after different incubation time ([1]; binary system with 0.5% polymer 101, incubation 0.5 h): 224300 ng/mL | Concentration of the target in the solution measured after different incubation time ([1]; binary system with 0.5% polymer 101, incubation 3 h): 62200 ng/mL | Concentration of the target in the solution measured after different incubation time ([1]; binary system with 0.5% polymer 101, incubation 6 h): 54400 ng/mL | Concentration of the target in the solution measured after different incubation time ([1]; binary system with 0.5% polymer 102, incubation 0.5 h): 19600 ng/mL | Concentration of the target in the solution measured after different incubation time ([1]; binary system with 0.5% polymer 102, incubation 3 h): 11100 ng/mL | Concentration of the target in the solution measured after different incubation time ([1]; binary system with 0.5% polymer 102, incubation 6 h): 10600 ng/mL | Concentration of the target in the solution measured after different incubation time ([1]; binary system with 0.5% polymer 103, incubation 0.5 h): 31100 ng/mL | Concentration of the target in the solution measured after different incubation time ([1]; binary system with 0.5% polymer 103, incubation 3 h): 32200 ng/mL | Concentration of the target in the solution measured after different incubation time ([1]; binary system with 0.5% polymer 103, incubation 6 h): 31900 ng/mL | Concentration of the target in the solution measured after different incubation time ([1]; binary system with 0.5% polymer 106, incubation 0.5 h): 49000 ng/mL | Concentration of the target in the solution measured after different incubation time ([1]; binary system with 0.5% polymer 106, incubation 3 h): 30100 ng/mL | Concentration of the target in the solution measured after different incubation time ([1]; binary system with 0.5% polymer 106, incubation 6 h): 26300 ng/mL | Concentration of the target in the solution measured after different incubation time ([1]; binary system with 0.5% polymer 107, incubation 0.5 h): 36400 ng/mL | Concentration of the target in the solution measured after different incubation time ([1]; binary system with 0.5% polymer 107, incubation 3 h): 35400 ng/mL | Concentration of the target in the solution measured after different incubation time ([1]; binary system with 0.5% polymer 107, incubation 6 h): 35300 ng/mL | Concentration of the target in the solution measured after different incubation time ([1]; binary system with 0.5% polymer 110, incubation 0.5 h): 6400 ng/mL | Concentration of the target in the solution measured after different incubation time ([1]; binary system with 0.5% polymer 110, incubation 3 h): 11100 ng/mL | Concentration of the target in the solution measured after different incubation time ([1]; binary system with 0.5% polymer 110, incubation 6 h): 4800 ng/mL | Concentration of guest molecule in solution ([2]; ternary: 0.25% 102L + 0.1% 313): 988100 ng/mL | Times that in Comparative Example 3 ([2]; ternary: 0.25% 102L + 0.1% 313): 31.9 times | Concentration of guest molecule in solution ([2]; ternary: 0.25% 102L + 1.0% 313): 352300 ng/mL | Times that in Comparative Example 3 ([2]; ternary: 0.25% 102L + 1.0% 313): 11.4 times | Concentration of guest molecule in solution [3]: 31300 ng/mL | Concentration of guest molecule measured after different incubated time ([4]; 0.5 h): 20500 ng/mL | Concentration of guest molecule measured after different incubated time ([4]; 3 h): 5400 ng/mL | Concentration of guest molecule measured after different incubated time ([4]; 6 h): 4200 ng/mL
Compound: Cc1ccc(-c2cc(C(F)(F)F)nn2-c2ccc(S(N)(=O)=O)cc2)cc1 [Celecoxib]
Concentration in the solution [5]: 109000 ng/mL

Source: US20250339399A1, “SUPRAMOLECULAR SELF-ASSEMBLY SYSTEM” (Beijing Creatron Institute of Pharmaceutical Research Co., …, priority 2022, published 2025)
